# Reference: PubChem BioAssay AID2745 (NMMLSC, 2010)
# Several values for one entry are separate records, joined by “and”; a condition that tells them apart may be missing. Equal entries are not always repeated. Activity calls are given as the source filed them. No rule for the calls is given here.
# Assay: LAP4-GFP modulation potency in yeast, dose response, cell-based, MLPCN hits, flow cytometry (AID 2745);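 also: yeast exposed to compound for three hours at 30 degrees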
# Settings: S. cerevisiae LAP4-GFP reporter, flow cytometry fluorescence; at 33 µM (top of the series)
row,Compound,LAP4-GFP fluorescence (kMESF)
1,O=C(CCS(=O)(=O)c1ccccc1)Nc1nc(-c2ccccn2)cs1,3.91 kMESF (inactive)
2,Cc1ccc(/C=C/C(=O)c2ccc([N+](=O)[O-])o2)cc1,9.71 kMESF (inactive)
3,COc1ccc([C@@]2(C(C)C)ON(c3ccccc3C(F)(F)F)C2=O)cc1,4.38 kMESF (inactive)
4,CC(=O)CSc1ncnc2c1cnn2-c1ccccc1,3.61 kMESF (inactive)
5,COc1cc(NC(=O)c2cccc(C)c2)ccc1NC(=O)c1cc2ccccc2o1,3.31 kMESF (inactive)
6,Cc1ccccc1C(=O)NNC(=S)NC(=O)c1ccc(Cl)cc1Cl,8.22 kMESF (inactive)
7,O=C(O)c1ccc2c(c1)C(=O)/C(=C/c1ccccc1)C2=O,3.53 kMESF (inactive)
8,CC[C@@]1(c2ccccc2OC)ON(c2ccccc2C(F)(F)F)C1=O,6.51 kMESF (inactive)
9,COc1ccc(-c2cc(C(F)(F)F)nc(S(C)(=O)=O)n2)cc1,10.6 kMESF (inactive)
10,CC(=O)OC[C@]12CC[C@H]3[C@@](C)(CC[C@H]4C(C)(C)CCC[C@]34C)[C@@H]1C[C@H](C1=CC(=O)O[C@@H]1OC(C)=O)O2,13.6 kMESF (inactive)
11,O=C(/C=C/c1ccnc2ccccc12)c1cccs1,11.4 kMESF (inactive)
12,Cc1cc(=O)n2c3c(sc2n1)C(=O)N(Cc1ccccc1)C3=O,9.31 kMESF (inactive)
13,O=C1C=C(Nc2ccc(Cl)cc2)C(=O)N1c1ccc(Cl)cc1,3.03 kMESF (inactive)
14,O=C(/C=C/c1ccccc1[N+](=O)[O-])c1ccccc1Br,15.6 kMESF (inactive)
15,O=C(CS(=O)c1ccccc1[N+](=O)[O-])Oc1ccc(Br)cc1 (centres undefined),21.8 kMESF (inactive)
16,CC(C)C[C@]1(c2ccccc2)ON(c2ccccc2C(F)(F)F)C1=O,2.53 kMESF (inactive)
17,O=C1C(Cl)=C(Nc2ccccc2O)C(=O)N1CCc1ccccc1,5.01 kMESF (inactive)
18,CC(=O)Oc1oc(-c2ccccc2)nc1C=Nc1ccccc1,8.16 kMESF (inactive)
19,Cc1cc(=O)oc2cc(Oc3ccc([N+](=O)[O-])cc3C(F)(F)F)ccc12,3.64 kMESF (inactive)
20,O=C(OCn1ncc(Br)c(Br)c1=O)c1ccccc1Cl,10.5 kMESF (inactive)
21,O=C(Nc1nc2ccc(F)cc2s1)c1ccccn1,8.11 kMESF (inactive)

row,Compound,LAP4-GFP fluorescence (kMESF)
1,O=C(NNC(=S)NC(=O)C12CC3CC(CC(C3)C1)C2)c1ccncc1,15.7 kMESF (inactive)
2,C#CCOCCOCCOCCNc1nc(N2CCN(C(=O)CCCCCCCCCCNC(=O)[C@@H](CCC(=O)O)n3cc(CCCCCN)nn3)CC2)nc(N2CCN(C(=O)CCCCCCCCCCNC(=O)[C@H](CCCCN)n3cc(C[C@@H](C)CC)nn3)CC2)n1,6.47 kMESF (inactive)
3,O=c1[nH]c(-c2ccc(Cl)cc2)cs1,3.03 kMESF (inactive)
4,CS(=O)(=O)c1sc(C#N)c2c1C(=O)CC(c1ccccc1)C2 (centres undefined),14.6 kMESF (inactive)
5,O=C1c2cccc3c([N+](=O)[O-])ccc(c23)C(=O)N1CCc1ccccn1,7.15 kMESF (inactive)
6,CCn1c(/C=C/c2ccc([N+](=O)[O-])o2)nc2ccccc2c1=O,-69.5 kMESF (inactive)
7,Cc1c(NC2=C(Cl)C(=O)N(c3ccccc3Cl)C2=O)c(=O)n(-c2ccccc2)n1C,3.78 kMESF (inactive)
8,Oc1ccc(CNc2ccccc2)c2cccnc12,3.88 kMESF (inactive)
9,CC(=O)Oc1cccc(N2C(=O)c3cccc4c([N+](=O)[O-])ccc(c34)C2=O)c1,5.16 kMESF (inactive)
10,COc1ccc(C(=O)/C=C2/C(=O)Nc3ccccc32)cc1OC,4.19 kMESF (inactive)
11,Cc1c(C)c2ccc(Oc3ccc([N+](=O)[O-])cc3C(F)(F)F)c(C)c2oc1=O,3.47 kMESF (inactive)
12,CC(C)[C@@]1(c2ccccc2)ON(c2ccccc2C(F)(F)F)C1=O,3.43 kMESF (inactive)
13,CCCCNc1c2c3c(cccc3n(C)c1=O)C(=O)c1ccccc1-2,11.2 kMESF (inactive)
14,COc1ccccc1C(=O)NNC(=S)NC(=O)c1ccco1,13.2 kMESF (inactive)
15,CCCc1nnc(NC(=O)c2c(O)c3cccc4c3n(c2=O)CCC4)s1,0.3 kMESF (inactive)
16,O=[N+]([O-])c1cc(CN2CCN(c3cccc(C(F)(F)F)c3)CC2)c2cccnc2c1O,7.46 kMESF (inactive)
17,Cc1ccc(C(CC(=O)O)NC(=O)c2ccc(S(=O)(=O)N3CC(C)OC(C)C3)cc2)cc1 (centres undefined),3.28 kMESF (inactive)
18,COc1ccc(CCNC2=C(Cl)C(=O)N(CCc3ccc(OC)c(OC)c3)C2=O)cc1OC,5.91 kMESF (inactive)
19,O=C1C=C(c2ccc(Cl)cc2)C(=O)N1Nc1ccccc1,5.81 kMESF (inactive)
20,Cc1ccc(NC(=O)CCc2ccccc2)cc1S(=O)(=O)N1CCOCC1,3.23 kMESF (inactive)
21,COc1ccc2c(c1)c1nnc(SC)nc1n2C,4.19 kMESF (inactive)

row,Compound,LAP4-GFP fluorescence (kMESF)
1,C=CCOc1cccc(C(=O)/C=C2/C(=O)Nc3ccccc32)c1,8.61 kMESF (inactive)
2,C[C@@H]1C[C@@H]([C@H](O)CC2CC(=O)NC(=O)C2)C(=O)[C@@H](C)C1,6.31 kMESF (inactive)
3,Cc1cc(C)nc(S/C=C/C(=O)c2ccccc2)n1,11 kMESF (inactive)
4,COc1ccc(N2CCN(C(=O)c3ccccc3)CC2)c([N+](=O)[O-])c1,6.87 kMESF (inactive)
5,O=C(Nc1ccc(N2CCOCC2)cc1)C1CCN(S(=O)(=O)c2ccc3c(c2)OCCO3)CC1,3.78 kMESF (inactive)
6,COc1cc(C=C2C(=O)c3ccccc3C2=O)cc(OC)c1,4.28 kMESF (inactive)
7,CC(C)(C)C(=O)NC(=S)NNC(=O)c1sc2ccccc2c1Cl,8.89 kMESF (inactive)
8,Cc1cccc(C(=O)NNC(=S)NC(=O)c2ccccc2)c1,9.62 kMESF (inactive)
9,O=C1c2ccccc2C(=O)N1OS(=O)(=O)c1ccc(F)cc1,9.97 kMESF (inactive)
10,O=c1c2cc(Br)ccc2nc(-c2ccc([N+](=O)[O-])cc2)n1O,6.81 kMESF (inactive)
11,CCN(CC)c1ccc(/C=C2\C(=O)c3ccc(C(=O)O)cc3C2=O)cc1,392 kMESF (inactive)
12,O=C1N(c2ccccc2C(F)(F)F)O[C@]1(c1ccccc1)C1CCCCC1,2.33 kMESF (inactive)
13,COc1ccccc1[C@@]1(C)ON(c2ccccc2C(F)(F)F)C1=O,7.08 kMESF (inactive)
14,O=C(Nc1cccc(-c2csc(Nc3ccccc3)n2)c1)c1ccccc1,4.18 kMESF (inactive)
15,Nc1nc2ncc(CNc3ccc(C(=O)N[C@@H](CCC(=O)O)C(=O)O)cc3)nc2c(=O)[nH]1,4.01 kMESF (inactive)
16,Oc1c(C(Nc2nc3ccccc3s2)c2ccco2)ccc2cccnc12 (centres undefined),24.1 kMESF (inactive)
17,O=C(Nc1nnc(-c2ccc(F)cc2)o1)c1cc(Cl)sc1Cl,6.71 kMESF (inactive)
18,CCCS(=O)(=O)c1nnnn1-c1cccc(OC)c1,18.2 kMESF (inactive)
19,CC(=O)N(\C=C/C=C/C=C1\Sc2ccccc2C1=O)c1ccccc1,14.2 kMESF (inactive)
20,CCC(=O)Oc1oc(-c2ccccc2)nc1C=Nc1ccc(C)cc1,4.73 kMESF (inactive)
21,O=C(Oc1ccnc2cc(Cl)ccc12)N1CCOCC1,2.63 kMESF (inactive)

row,Compound,LAP4-GFP fluorescence (kMESF)
1,C=CCOc1ccc(C(=O)/C=C2/C(=O)Nc3ccccc32)cc1,7.99 kMESF (inactive)
2,C#CCOCCOCCOCCNc1nc(N2CCN(C(=O)CCCCCCCCCCNC(=O)[C@H](CCCCN)n3cc(CCO)nn3)CC2)nc(N2CCN(C(=O)CCCCCCCCCCNC(=O)[C@H](CCCCN)n3cc(C[C@@H](C)CC)nn3)CC2)n1,5.86 kMESF (inactive)
3,c1ccc(-c2csc(Nc3cccnc3)n2)nc1,3.67 kMESF (inactive)
4,COc1ccc(N=Cc2nc(-c3ccccc3)oc2OC(C)=O)cc1,4.93 kMESF (inactive)
5,O=C(O)c1cccc(S(=O)(=O)Nc2ccc(S(=O)(=O)N3CCOCC3)cc2)c1,3.38 kMESF (inactive)
6,COc1ccc(C(=O)/C=C2/C(=O)Nc3ccccc32)c(OC)c1,10.1 kMESF (inactive)
7,Cc1cccc(N2C(=O)C(Cl)=C(Nc3c(C)n(C)n(-c4ccccc4)c3=O)C2=O)c1C,6.11 kMESF (inactive)
8,CN(O)/C=c1/ccc2c(n1)C(=O)C=CC=2,17.5 kMESF (inactive)
9,Oc1c(C(Nc2cccc(C(F)(F)F)c2)c2ccncc2)ccc2cccnc12 (centres undefined),11.8 kMESF (inactive)
10,Cn1ncc2c(O/N=C(\N)c3ccc(C(C)(C)C)cc3)ncnc21,5.61 kMESF (inactive)
11,COc1cc(/C=C2/C(=O)c3cccc([N+](=O)[O-])c3C2=O)c(Br)cc1O,3.64 kMESF (inactive)
12,CC(=O)Oc1ccc(N2C(=O)C3C4C=CC(O4)C3C2=O)cc1 (centres undefined),6.57 kMESF (inactive)
13,O=C1c2sc3nc4ccccc4n3c2C(=O)N1c1ccccc1Cl,3.64 kMESF (inactive)
14,O=c1c(-c2ccc(Cl)cc2)[n+]([O-])c2ccccc2n1O,16.1 kMESF (inactive)
15,CS(=O)(=O)N1N=C(c2ccccc2)CC1c1ccc2c(c1)OCO2 (centres undefined),-20.2 kMESF (inactive)
16,[O-][n+]1cccc2c(Br)cc(Br)c(O)c21,12.9 kMESF (inactive)
17,Cc1nn2c(-c3ccncc3)nnc2c2ccccc12,3.34 kMESF (inactive)
18,COc1cc(N=c2ssnc2Cl)c(OC)cc1Cl,13.4 kMESF (inactive) and 13.8 kMESF (inactive)
19,COc1cc(NC(=O)c2ccccc2[N+](=O)[O-])ccc1NC(=O)c1cc2ccccc2o1,3.31 kMESF (inactive)
20,Cc1cc(C)c(OCC(=O)Nc2nc(-c3ccccn3)cs2)c(C)c1,5.78 kMESF (inactive)
21,CCCCOc1ccc(C(=O)NNC(=S)NC(=O)CC)cc1,9.81 kMESF (inactive)
